Assay results from patent publication US20080200439A1, “Methods and compositions for modulating BK channel activity and vasodilation” (University of Tennessee Research Foundation, priority 2006, published 2008).

Experiments:
[1] = tested on: pressurized resistance cerebral arteries; test: Artery diameter measurement, pressurized rat middle cerebral arteries; settings: 0.8 mM
Method: Artery Diameter Measurement. Middle cerebral arteries were isolated from adult male Sprague-Dawley rats (=250 g) or 8- to 12-week-old β1-knockout and C57BL/6 control mice. Rats and mice were decapitated using a guillotine and sharp scissors, respectively. These procedures were approved by the Institutional Animal Care and Use Committee from The University of Tennessee Health Science Center, an AMLAC-accredited institution. Pressurization of arteries was performed as described (Liu et al., 2004). Endothelium was removed by passing an air bubble into the vessel lumen for 90 sec. Diameter changes were monitored through an inverted microscope (Nikon Eclipse TS100, Nikon Corp., Tokyo, Japan), recorded on camera (Sanyo VCB-3512T, Sanyo Electric Corp., Japan), and transferred to a computer. Diameter data were acquired and analyzed using IonWizard 4.4 software (IonOptics Corp., Milton, Mass., United States of America).
Pressurized arteries were extraluminally perfused with physiological saline solution (PSS) (Liu et al., 2004) at a constant rate of 3.75 ml/min using a peristaltic pump Dynamax RP-1 (Rainin Instrument, Inc., Oakland, Calif., United States of America). At this rate, complete washout of the iberiotoxin (Ibtx) effect required >45 min. To keep basal tone under steady behavior, we shortened this period by increasing flow rate ˜3 times during washout of Ibtx, which sometimes evoked a flow-induced dilation (FIG. 1A). Equal volumes (25 ml) of vehicle- vs. LC-containing solutions were applied at equal, constant rate (see above) to the pressurized arterial segment in the chamber via a gravity system. Drugs were dissolved to make stock solutions (see Chemicals) and diluted in PSS to final concentration.
Chemicals. All chemicals were purchased from Sigma (St. Louis, Mo., United States of America), with the exception of 5β-cholanic acid 3α-ol (LC) (Steraloids, Inc., Newport, R.I., United States of America) and Ibtx (Alomone Labs Ltd., Jerusalem, Israel). On the day of the experiment, an LC stock solution (333 mM) in dimethyl sulfoxide (DMSO) was freshly prepared by sonication for 5 min. For arterial tone experiments, the LC stock was diluted 1/10 in DMSO and further diluted in PSS to render final LC concentration. Solution containing vehicle (0.1% DMSO; V/V) was used as control perfusion. For electrophysiological recordings, the LC stock solution was diluted 1/10 in 95% ethanol and further diluted with bath solution to render final LC concentration (3-1,000 μM). The DMSO/ethanol vehicle (≦0.1/≦0.86% final concentrations) in bath solution was used as control.
Data Analysis. Artery diameter response to each compound is shown as a percentage of the diameter obtained before compound application. Arterial diameter and electrophysiological data were analyzed with IonWizard 4.4 (IonOptics Corp., Milton, Mass., United States of America) and pCLAMP 8.0 (Molecular Devices, Union City, Calif., United States of America). Further analysis, plotting, and fitting were conducted using Origin 7.0 (Originlab Corp., Northampton, Mass., United States of America) and InStat 3.0 (GraphPad Software Inc., San Diego, Calif., United States of America).
After myogenic tone development at 60 mm Hg, intact arteries reached a diameter of 154.4±5.2 μm (n=17). Maximal contraction and dilation were checked by perfusing the vessel with 60 mM KCl at the beginning, and Ca^2+-free solution at the end of each experiment (FIGS. 1A & 1B). In all cases (n=17), application of 45 μM LC, that is, concentrations well below LC's critical micellar concentration (CMC) (≧1 mM under our recording conditions) (Roda et al., 1995) caused a significant increase in peak arterial diameter: +6% on top of a transient increase in diameter caused by vehicle-containing solution (FIGS. 1A-1C). […]

[2] = target: cbv1+β1 channels (UniProt Q16558+Q62976); test: Patch-clamp of heteromeric cbv1+β1 channels expressed in Xenopus oocytes; assay type: cell-based, rat; settings: 10 μM; bath application to extracellular surface of O/O patches
Text: cRNA Preparation and Injection into Xenopus Oocytes. Full-length cDNA coding for cbv1-subunits was cloned from rat cerebral artery myocytes by PCR and ligated to the PCR-XL-TOPO cloning vector (Invitrogen Corp., Carlsbad, Calif., United States of America) (Jaggar et al., 2005). cDNA coding for cbv1-subunits was cleaved from the cloning vector by BamHI (Invitrogen Corp., Carlsbad, Calif., United States of America) and XhoI (Promega, Madison, Wis., United States of America) and directly inserted into the pOX vector for expression in Xenopus oocytes. pOX-cbv1 was linearized with NotI (Promega, Madison, Wis., United States of America) and transcribed in vitro using T3 polymerase. Beta,-subunit cDNA inserted into the EcoR I/Sal I sites of the pCl-neo expression vector was linearized with NotI and transcribed in vitro using T7 polymerase. Beta4-subunit cDNA inserted into the pOx vector was linearized by NotI and transcribed using T3 polymerase. The mMessage-mMachine kit (Ambion Inc., Austin, Tex., United States of America) was used for transcription. The pOX vector and the cDNA coding for β1-subunits were generous gifts from Aguan Wei (Washington University, Saint Louis, Mo., United States of America) and Maria Garcia (Merck Research Laboratories, Whitehouse Station, N.J., United States of America).
Oocytes were removed from Xenopus laevis and prepared as described (Dopico et al., 1998). cRNA was dissolved in […] at 5 (cbv1) and 15 (β1 or β4) ng/μl; 1-μl aliquots were stored at −70° C. Cbv1 cRNA was injected alone (2.5 ng/μp) or coinjected with either β1 or β4 (7.5 ng/μl) cRNAs, giving molar ratios ≧6:1 (β:α). cRNA injection (23 nl/oocyte) was conducted using a modified micropipette (Drummond Scientific Co., Broomall, Pa., United States of America). The interval between injection and patch-clamp recordings was 48-72 h.
Electrophysiology. Oocytes were prepared for patch-clamp recordings as described (Dopico et al., 1998). Single-channel and macroscopic currents were recorded from inside-out (I/O) or outside-out (O/O) patches. For experiments with oocytes, both bath and electrode solutions contained (mM) 135 K^+ gluconate, 5 EGTA, 1 MgCl2, 15 HEPES, 10 glucose, pH 7.35. For experiments with myocytes, KCl substituted for K^+ gluconate. In all experiments, free Ca^2+ in solution was adjusted to the desired value by adding CaCl2. In most studies, free Ca^2+ in electrode solution=10 μM. In O/O studies with 17β-estradiol, however, free Ca^2+ in the electrode solution=0.3 μM. Nominal free Ca^2+ was calculated with MaxChelator Sliders (C. Patton, Stanford University, California, United States of America) and validated experimentally using Ca^2+-selective electrodes (Corning Incorporated Science Products Division, Corning, N.Y., United States of America).
Patch-recording electrodes were made as described (Dopico et al., 1998). Immediately before recording, the tip of each electrode was fire-polished on a microforge WPI MF-200 (World Precision Instruments, Inc., Sarasota, Fla., United States of America) to give resistances of 5-9 MD when filled with solution. An agar bridge with gluconate or Cl^− as the main anion (for oocyte and myocyte experiments, respectively) was used as ground electrode. After excision from the cell, the membrane patch was exposed to a stream of bath solution containing each agent at final concentration. Solutions were applied onto the patches using a pressurized system DAD12 (ALA Scientific Instruments, New York, N.Y., United States of America) via a micropipette tip with an internal diameter of 100 μm. Experiments were carried out at room temperature (21° C.).
Currents were recorded using an EPC8 amplifier (HEKA Electronics, Lambrecht/Pfalz, Germany) at 1 kHz using a low-pass, eight-pole Bessel filter 902LPF (Frequency Devices, Haverhill, Mass., United States of America). […]

[3] = tested on: BK channels; settings: cited from earlier work

Chain of cbv1+β1 channels (Q62976 1-1148 isoform Q62976-2): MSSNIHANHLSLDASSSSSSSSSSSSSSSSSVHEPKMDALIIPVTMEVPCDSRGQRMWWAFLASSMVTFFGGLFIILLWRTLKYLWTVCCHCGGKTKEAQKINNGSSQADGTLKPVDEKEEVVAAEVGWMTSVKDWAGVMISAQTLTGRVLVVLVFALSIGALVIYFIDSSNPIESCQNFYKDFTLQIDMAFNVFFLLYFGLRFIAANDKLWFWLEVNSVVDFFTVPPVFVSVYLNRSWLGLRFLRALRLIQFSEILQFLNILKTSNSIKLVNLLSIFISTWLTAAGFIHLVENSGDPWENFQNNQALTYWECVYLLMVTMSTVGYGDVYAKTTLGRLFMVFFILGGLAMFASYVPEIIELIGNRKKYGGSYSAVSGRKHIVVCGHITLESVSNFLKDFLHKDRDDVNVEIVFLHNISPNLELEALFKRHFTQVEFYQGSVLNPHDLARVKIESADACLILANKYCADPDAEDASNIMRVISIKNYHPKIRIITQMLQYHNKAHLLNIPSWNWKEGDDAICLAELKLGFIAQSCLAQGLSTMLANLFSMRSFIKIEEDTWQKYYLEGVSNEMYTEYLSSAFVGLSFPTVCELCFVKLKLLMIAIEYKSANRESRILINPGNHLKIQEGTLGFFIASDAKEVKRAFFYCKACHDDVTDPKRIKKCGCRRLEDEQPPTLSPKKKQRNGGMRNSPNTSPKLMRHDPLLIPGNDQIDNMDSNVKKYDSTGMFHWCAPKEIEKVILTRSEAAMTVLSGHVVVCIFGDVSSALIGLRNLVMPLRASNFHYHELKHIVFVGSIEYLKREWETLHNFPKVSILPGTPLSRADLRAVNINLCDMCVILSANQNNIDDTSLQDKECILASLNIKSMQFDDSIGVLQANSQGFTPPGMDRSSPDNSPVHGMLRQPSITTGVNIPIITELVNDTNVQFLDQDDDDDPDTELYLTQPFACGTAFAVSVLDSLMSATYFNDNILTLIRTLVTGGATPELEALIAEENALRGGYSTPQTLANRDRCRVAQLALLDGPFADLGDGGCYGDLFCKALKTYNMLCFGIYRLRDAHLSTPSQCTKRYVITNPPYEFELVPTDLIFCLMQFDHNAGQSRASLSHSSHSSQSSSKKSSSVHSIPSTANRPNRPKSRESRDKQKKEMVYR
Chain of cbv1+β1 channels (Q16558 whole entry): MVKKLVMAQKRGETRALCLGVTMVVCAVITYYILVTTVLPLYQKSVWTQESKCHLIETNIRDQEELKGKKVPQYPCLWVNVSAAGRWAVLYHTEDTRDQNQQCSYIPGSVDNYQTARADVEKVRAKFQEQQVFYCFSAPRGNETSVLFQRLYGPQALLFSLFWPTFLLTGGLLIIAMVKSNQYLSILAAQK

Nc1ccncc1 [4-AP, 4-aminopyridine, reference compound] gave a Decrease in diameter [1] of −9.7±2.3%.

For C[C@]12CC[C@@H]3c4ccc(O)cc4CC[C@H]3[C@@H]1CC[C@@H]2O [17β-estradiol], the “Effect on channel activity” value [2] is listed as “channel activation”, the “Concentrations modulating BK activity through the channel α-subunit” value ([3]; Korovkina et al., 2004) is listed as 0.01 to 1 µM and the “Concentrations increasing BK (hslo) channel activity by interacting with the β1-subunit” value ([3]; Valverde et al., 1999) is listed as 1 to 30 µM.

For CC/C(=C(\c1ccccc1)c1ccc(OCCN(C)C)cc1)c1ccccc1 [tamoxifen, Tamoxifen], the “Concentrations decreasing unitary current amplitude (as low as)” value ([3]; Duncan, 2005) is given as 1 to 10 µM.
